Measurements as given in PMC10377586 (Biomolecules, 2023).

Key:
DPPH antioxidant assay = type: physicochemical; conditions: compound at 50 µM
Description: The 2,2-diphenyl-1-picrylhydrazyl (DPPH) assay was used to determine the antioxidant properties of selected compounds using ascorbic acid, trolox, and quercetin as references. […] From a structural point of view, 21 and 22 share a common pyrimido[2,1-f]purinedione core with propyl or butyl substituents at the N1- and N3-position. Compounds 11i and 11l, containing hexyl or phenoxyethyl as N7-substituents, were the only structures in the groups of bicyclic xanthine derivatives that lacked antioxidant activity in the DPPH assay.
Antioxidant properties of considered structures were evaluated in DPPH test. The assay utilizes a stable free radical 2,2-diphenyl-1-picrylhydrazyl (DPPH). DPPH has a deep violet color in solution and strong absorption band at 520 nm. The antioxidant activity of the tested compounds was defined by their ability to induce the formation of the reduced form of DPPH. Upon reduction, DPPH color turned pale yellow, which manifested by decreased sample absorption at 520 nm and was measured in conducted experiments using EnSpire microplate reader (PerkinElmer). Antioxidant activity of xanthine derivatives and reference compounds was tested in triplicate at 50 µM concentration and normalized to the activity of reference radical scavenger—quercetin.
Figure 2 Antioxidant properties of xanthine derivatives evaluated in the DPPH test. All compounds were tested at 50 µM concentration. Results were normalized to the antioxidant activity measured for quercetin. ASC, ascorbic acid; TLX, trolox; QCT, quercetin.

| melting point | Compound | Antioxidative Activity [% of Quercetin Response at 50 µM ± SD] (DPPH antioxidant assay) |
| --- | --- | --- |
| 201 to 203 °C | CC(C)Cn1c(NCCc2ccc(O)c(O)c2)nc2c1c(=O)n(C)c(=O)n2C (hydrate or solvate) [Compound 11f, 8-((3,4-Dihydroxyphenethyl)amino)-7-isobutyl-1,3-dimethyl-3,7-dihydro-1H-purine-2,6-dione] | – |
| 214 to 216 °C | Cn1c(=O)c2c(nc(NCCc3ccc(O)c(O)c3)n2Cc2ccccc2)n(C)c1=O (hydrate or solvate) [Compound 11j, 7-Benzyl-8-((3,4-dihydroxyphenethyl)amino)-1,3-dimethyl-3,7-dihydro-1H-purine-2,6-dione] | – |
| 180 to 182 °C | Cn1c(=O)c2c(nc(NCCc3ccc(O)c(O)c3)n2CCc2ccccc2)n(C)c1=O (hydrate or solvate) [Compound 11k, 8-((3,4-Dihydroxyphenethyl)amino)-1,3-dimethyl-7-phenethyl-3,7-dihydro-1H-purine-2,6-dione] | – |

Second part, the compound before the results:

| Compound | melting point | Antioxidative Activity [% of Quercetin Response at 50 µM ± SD] (DPPH antioxidant assay) |
| --- | --- | --- |
| O=C1O[C@H]([C@@H](O)CO)C(O)=C1O [Ascorbic acid, reference compound] | – | 78 ± 1 % of Quercetin Response |
| Cc1c(C)c2c(c(C)c1O)CCC(C)(C(=O)O)O2 (centres unmarked) [Trolox, reference compound] | – | 73 ± 1 % of Quercetin Response |
